Experimental data: ChEMBL document CHEMBL4680293, “Tubulin inhibitory activity of a novel colchicine-binding compounds based on a dinaphthospiropyranran scaffold” (Bioorg Med Chem, 2021)
The source made the active and inactive calls. No cut-off for these calls is given here.

Tests used:
SW-620 = experiment: Anti-cancer activity against human SW-620 cells assessed as cell growth inhibition measured after 48 hrs by SRB method; format: functional, cell-based
MDA-MB-231 = experiment: Anti-cancer activity against human MDA-MB-231 cells assessed as cell growth inhibition measured after 48 hrs by SRB method; format: functional, cell-based
MOLT-4 = experiment: Anti-cancer activity against human MOLT-4 cells assessed as cell growth inhibition measured after 48 hrs by SRB method; format: functional, cell-based
NCI-H460 = experiment: Anti-cancer activity against human NCI-H460 cells assessed as cell growth inhibition measured after 48 hrs by SRB method; format: functional, cell-based
EKVX = experiment: Anti-cancer activity against human EKVX cells assessed as cell growth inhibition measured after 48 hrs by SRB method; format: functional, cell-based
NCI-H522 = experiment: Anti-cancer activity against human NCI-H522 cells assessed as cell growth inhibition measured after 48 hrs by SRB method; format: functional, cell-based
RPMI-8226 = experiment: Anti-cancer activity against human RPMI-8226 cells assessed as cell growth inhibition measured after 48 hrs by SRB method; format: functional, cell-based
LOX IMVI = experiment: Anti-cancer activity against human LOX IMVI cells assessed as cell growth inhibition measured after 48 hrs by SRB method; format: functional, cell-based
PC-3 = experiment: Anti-cancer activity against human PC-3 cells assessed as cell growth inhibition measured after 48 hrs by SRB method; format: functional, cell-based
OVCAR-3 = experiment: Anti-cancer activity against human OVCAR-3 cells assessed as cell growth inhibition measured after 48 hrs by SRB method; format: functional, cell-based
Tubulin (Homo sapiens) [1] = biological target: T1, Tubulin (Homo sapiens) (UniProt P68371+Q9H4B7+P0DPH7+P68366+Q13509+Q71U36+P04350+Q3ZCM7+P07437+P68363+Q9BQE3+Q6PEY2+Q13885+Q9BVA1+Q9BUF5); experiment: Inhibition of tubulin (unknown origin) assessed as inhibition of tubulin polymerization at 10 uM measured for 50 mins by fluorescence based analysis; format: protein-complex assay
SK-MEL-28 = experiment: Anti-cancer activity against human SK-MEL-28 cells assessed as cell growth inhibition measured after 48 hrs by SRB method; format: functional, cell-based
[2] = Anti-cancer activity against human central nervous system cells assessed as cell growth inhibition measured after 48 hrs by SRB method; format: functional; conditions: CNS cell
MDA-MB-468 = experiment: Anti-cancer activity against human MDA-MB-468 cells assessed as cell growth inhibition measured after 48 hrs by SRB method; format: functional, cell-based
[3] = Anti-cancer activity against human non-small lung cancer cells assessed as cell growth inhibition measured after 48 hrs by SRB method; format: functional; conditions: Non-small cell lung cancer cell line
SNB-19 = experiment: Anti-cancer activity against human SNB-19 cells assessed as cell growth inhibition measured after 48 hrs by SRB method; format: functional, cell-based
[4] = Anti-cancer activity against human melanoma cells assessed as cell growth inhibition measured after 48 hrs by SRB method; format: functional; conditions: Melanoma cell line
HCT-15 = experiment: Anti-cancer activity against human HCT-15 cells assessed as cell growth inhibition measured after 48 hrs by SRB method; format: functional, cell-based
DU-145 = experiment: Anti-cancer activity against human DU-145 cells assessed as cell growth inhibition measured after 48 hrs by SRB method; format: functional, cell-based
Malme-3M = experiment: Anti-cancer activity against human Malme-3M cells assessed as cell growth inhibition measured after 48 hrs by SRB method; format: functional, cell-based
A549 = experiment: Anti-cancer activity against human A549/ATCC cells assessed as cell growth inhibition measured after 48 hrs by SRB method; format: functional, cell-based
TK-10 = experiment: Anti-cancer activity against human TK-10 cells assessed as cell growth inhibition measured after 48 hrs by SRB method; format: functional, cell-based
Tubulin (Homo sapiens) [5] = biological target: T1, Tubulin (Homo sapiens); experiment: Disruption of tubulin in human HCT-116 cells assessed as induction of tubulin reorganization at 20 uM after 48 hrs by DAPI staining based immunofluorescence method; format: cell-based
COLO 205 = experiment: Anti-cancer activity against human COLO205 cells assessed as cell growth inhibition measured after 48 hrs by SRB method; format: functional, cell-based
SK-MEL-5 = experiment: Anti-cancer activity against human SK-MEL-5 cells assessed as cell growth inhibition measured after 48 hrs by SRB method; format: functional, cell-based
CCRF-CEM = experiment: Anti-cancer activity against human CCRF-CEM cells assessed as cell growth inhibition measured after 48 hrs by SRB assay; format: functional, cell-based
NCI/ADR-RES = experiment: Anti-cancer activity against human NCI/ADR-RES cells assessed as cell growth inhibition measured after 48 hrs by SRB method; format: functional, cell-based
[6] = time 48 hrs, read-out: LC50 (the source's name)

C1=C2CNCC3=Cc4c(ccc5ccccc45)OC23Oc2ccc3ccccc3c21
IC50 (SW-620; SW-620, 48 h): 3.09 µM
GI50 (SW-620; SW-620, time 48 hrs): 2.51 µM
TGI (SW-620; SW-620, time 48 hrs): 10.5 µM
CC50 (SW-620; SW-620, time 48 hrs, read-out: LC50 (the source's name)): 4.28 µM
IC50 (MDA-MB-231; MDA-MB-231, 48 h): 22.9 µM
GI50 (MDA-MB-231; MDA-MB-231, time 48 hrs): 9.33 µM
TGI (MDA-MB-231; MDA-MB-231, time 48 hrs): 26.9 µM
CC50 (MDA-MB-231; MDA-MB-231, time 48 hrs, read-out: LC50 (the source's name)): 4.12 µM
IC50 (MOLT-4; MOLT-4, 48 h): 5.13 µM
GI50 (MOLT-4; MOLT-4, time 48 hrs): 2.88 µM
LC50 (MOLT-4; MOLT-4, time 48 hrs): 4 µM
TGI (MOLT-4; MOLT-4, time 48 hrs): 10.5 µM
IC50 (NCI-H460; NCI-H460, 48 h): 3.72 µM
GI50 (NCI-H460; NCI-H460, time 48 hrs): 3.24 µM
TGI (NCI-H460; NCI-H460, time 48 hrs): 13.2 µM
CC50 (NCI-H460; NCI-H460, time 48 hrs, read-out: LC50 (the source's name)): 4.14 µM
IC50 (EKVX; 48 h): 20 µM
GI50 (EKVX; time 48 hrs): 5.75 µM
TGI (EKVX; time 48 hrs): 33.9 µM
IC50 (NCI-H522; NCI-H522, 48 h): 9.55 µM
GI50 (NCI-H522; NCI-H522, time 48 hrs): 3.02 µM
TGI (NCI-H522; NCI-H522, time 48 hrs): 13.2 µM
CC50 (NCI-H522; NCI-H522, time 48 hrs, read-out: LC50 (the source's name)): 4.15 µM
IC50 (RPMI-8226; RPMI-8226, 48 h): 13.8 µM
GI50 (RPMI-8226; RPMI-8226, time 48 hrs): 5.5 µM
TGI (RPMI-8226; RPMI-8226, time 48 hrs): 64.6 µM
CC50 (RPMI-8226; RPMI-8226, time 48 hrs, read-out: LC50 (the source's name)): 4 µM
IC50 (LOX IMVI; 48 h): 3.39 µM
GI50 (LOX IMVI; time 48 hrs): 2.45 µM
LC50 (50% lethal concentration) (LOX IMVI; time 48 hrs): 4 µM
TGI (LOX IMVI; time 48 hrs): 7.41 µM
IC50 (PC-3; PC-3, 48 h): 10 µM
GI50 (PC-3; PC-3, time 48 hrs): 3.47 µM
LC50 (PC-3; PC-3, time 48 hrs): 4.16 µM
TGI (PC-3; PC-3, time 48 hrs): 18.2 µM
IC50 (OVCAR-3; OVCAR-3, 48 h): 4.07 µM
GI50 (OVCAR-3; OVCAR-3, time 48 hrs): 2.34 µM
LC50 (OVCAR-3; OVCAR-3, time 48 hrs): 4.71 µM
TGI (OVCAR-3; OVCAR-3, time 48 hrs): 5.5 µM
inhibition (Tubulin (Homo sapiens) [1]): Active
TGI (SK-MEL-28): inactive
IC50 (SK-MEL-28; SK-MEL-28, 48 h): 10 µM
GI50 (SK-MEL-28; SK-MEL-28, time 48 hrs): 7.41 µM
GI50 [2]: 3.8 µM
IC50 (MDA-MB-468; MDA-MB-468, 48 h): 5.89 µM
GI50 (MDA-MB-468; MDA-MB-468, time 48 hrs): 2.04 µM
TGI (MDA-MB-468; MDA-MB-468, time 48 hrs): 7.59 µM
CC50 (MDA-MB-468; MDA-MB-468, time 48 hrs, read-out: LC50 (the source's name)): 4.32 µM
GI50 [3]: 5.13 µM
IC50 (SNB-19; SNB-19, 48 h): 15.8 µM
GI50 (SNB-19; SNB-19, time 48 hrs): 6.92 µM
LC50 (SNB-19; SNB-19, time 48 hrs): 4 µM
TGI (SNB-19; SNB-19, time 48 hrs): 29.5 µM
GI50 [4]: 4.47 µM
IC50 (HCT-15; HCT-15, 48 h): 5.5 µM
GI50 (HCT-15; HCT-15, time 48 hrs): 3.89 µM
LC50 (HCT-15; HCT-15, time 48 hrs): 4 µM
TGI (HCT-15; HCT-15, time 48 hrs): 22.4 µM
IC50 (DU-145; DU-145, 48 h): 4.68 µM
GI50 (DU-145; DU-145, time 48 hrs): 3.31 µM
TGI (DU-145; DU-145, time 48 hrs): 11.2 µM
CC50 (DU-145; DU-145, time 48 hrs, read-out: LC50 (the source's name)): 4.41 µM
IC50 (Malme-3M; 48 h): 36.3 µM
GI50 (Malme-3M; time 48 hrs): 12.6 µM
LC50 (50% lethal concentration) (Malme-3M; time 48 hrs): 4 µM
TGI (Malme-3M; time 48 hrs): 38 µM
IC50 (A549; A549, 48 h): 6.92 µM
GI50 (A549; A549, time 48 hrs): 4.47 µM
TGI (A549; A549, time 48 hrs): 20.4 µM
CC50 (A549; A549, time 48 hrs, read-out: LC50 (the source's name)): 4.14 µM
IC50 (TK-10; TK-10, 48 h): 26.9 µM
GI50 (TK-10; TK-10, time 48 hrs): 9.12 µM
TGI (TK-10; TK-10, time 48 hrs): 27.5 µM
Activity (Tubulin (Homo sapiens) [5]): Active
IC50 (COLO 205; COLO 205, 48 h): 3.72 µM
GI50 (COLO 205; COLO 205, time 48 hrs): 2.09 µM
TGI (COLO 205; COLO 205, time 48 hrs): 4.27 µM
CC50 (COLO 205; COLO 205, time 48 hrs, read-out: LC50 (the source's name)): 5.07 µM
IC50 (SK-MEL-5; SK-MEL-5, 48 h): 6.03 µM
GI50 (SK-MEL-5; SK-MEL-5, time 48 hrs): 3.16 µM
TGI (SK-MEL-5; SK-MEL-5, time 48 hrs): 13.8 µM
CC50 (SK-MEL-5; SK-MEL-5, time 48 hrs, read-out: LC50 (the source's name)): 4.33 µM
IC50 (CCRF-CEM; 48 h): 5.37 µM
GI50 (CCRF-CEM; time 48 hrs): 3.63 µM
TGI (CCRF-CEM; time 48 hrs): 100 µM
CC50 (CCRF-CEM; [6]): 4 µM
IC50 (NCI/ADR-RES; 48 h): 3.8 µM
GI50 (NCI/ADR-RES; time 48 hrs): 2.09 µM
TGI (NCI/ADR-RES; time 48 hrs): 6.03 µM
CC50 (NCI/ADR-RES; [6]): 4 µM
